Data taken from patent publication EP4471048A1, “PEPTIDE INHIBITORS OF INTERLEUKIN-23 RECEPTOR” (Zealand Pharma A/S, priority 2023, dated 2024).
*1 amine or outer side, *2 acyl side, *3 side chain or, on linkers, in order; H or OH if unused. Where a SMILES comes first, the peptide text is derived from it. Bridges are numbered along the chain shown (N, C = ends). [ ]: non-standard residue; d: D form. The star is where a group is joined. X23 = O=C(CCCCCc1cccnc1)N[C@@H](CCN[*:2])C(=O)[*:1]; NH(4-(3-pyridyl)butyl) = c1cncc(CCCCN*)c1; Phe(4-Me) = Cc1ccc(C[C@H](N)C(=O)O)cc1; 2Nal = N[C@@H](Cc1ccc2ccccc2c1)C(=O)O; AEF = NCCOc1ccc(C[C@H](N)C(=O)O)cc1; αMeL = CC(C)C[C@](C)(N)C(=O)O

Biological target: T1, human IL-23R (Homo sapiens, UniProt Q5VWK5)
T1 sequence (Q5VWK5 22-629): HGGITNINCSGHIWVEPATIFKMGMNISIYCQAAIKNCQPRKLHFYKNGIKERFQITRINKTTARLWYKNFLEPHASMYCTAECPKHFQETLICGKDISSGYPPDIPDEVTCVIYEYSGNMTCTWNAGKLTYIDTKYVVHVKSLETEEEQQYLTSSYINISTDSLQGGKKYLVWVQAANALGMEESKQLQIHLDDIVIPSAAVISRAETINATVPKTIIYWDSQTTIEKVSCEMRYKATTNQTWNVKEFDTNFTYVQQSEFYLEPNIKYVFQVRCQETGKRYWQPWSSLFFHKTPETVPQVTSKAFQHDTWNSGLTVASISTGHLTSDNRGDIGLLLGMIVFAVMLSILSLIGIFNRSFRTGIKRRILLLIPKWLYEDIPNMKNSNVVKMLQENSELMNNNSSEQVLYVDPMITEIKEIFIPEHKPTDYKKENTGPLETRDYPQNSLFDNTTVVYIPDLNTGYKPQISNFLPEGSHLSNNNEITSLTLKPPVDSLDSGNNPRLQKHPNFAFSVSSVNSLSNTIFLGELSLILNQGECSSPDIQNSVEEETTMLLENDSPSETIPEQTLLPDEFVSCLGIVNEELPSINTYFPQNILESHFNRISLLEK
Assay: biochemical
Conditions: for Emax: read-out: % displacement (hIL-23R NIuc)
Excerpt: The compound binding affinity for IL-23R was estimated by the ability of compounds to displace a fluorophore-labelled reference compound from the human IL-23R. The assay principle relies on Bioluminescence Resonance Energy Transfer (BRET) between a fluorophore-labelled reference compound binding to the IL-23R part of a fusion protein consisting of the IL-23R fused to a Nanoluc luciferase enzyme (Nanoluc). The Nanoluc is placed in the N-terminus in close proximity to the binding domain of the ligand. Upon close proximity between the fluorophore of the fluorophore-labelled compound and the Nanoluc of the fusion protein, bioluminescence energy generated from conversion of a Nanoluc substrate, is transferred to the fluorophore resulting in an increase in BRET. In presence of an unlabelled compound, the unlabelled compound displaces the fluorophore-labelled peptide from its binding site resulting in a decrease in BRET. The concentration for which half of the fluorophore-labelled peptide is displaced by the unlabelled compound depends on the affinity of the compound for the IL-23R, and is termed the IC50 concentration.
The plasmid also contained a gene to confer resistance for the antibiotic hygromycin. A cell line stably expressing the Nluc-IL23R fusion protein was generated by transfection of HEK293 cells with the expression plasmid and selected with hygromycin for 3 weeks in Growth medium consisting of DMEM w/ Glutamax-I containing, 10% V/V FBS, 1% V/V P/S, 1 mM Sodium Pyruvate, and 1X NEAA, and 0.3 mg/mL hygromycin. The remaining cells were propagated and considered a stable expressing Nluc-IL23R fusion protein pool clone.
Cells expressing the Nluc-IL23R fusion protein were expanded in Growth medium and membranes prepared by homogenization of a cell pellet from 18 T175 flasks (4 °C in subsequent steps). The cell pellet was lysed Tris 10 mM, 7.5, 1 mM EDTA and protease inhibitors (Complete, Roche) and homogenized using a 15 mL glass-dounce by 50 strokes. The homogenate was spun at spin @1500 rpm for 10 min, the supernatant transferred to SV-34 tubes and spun at 40000g for 20 min at 4 °C to pellet the crude membranes. The supernatant was then removed, the pellet resuspended in 5 mL buffer containing 50 mM HEPES pH 7.4, 5 mM EGTA, and 5 mM MgCl2, and homogenized. Aliquots of the resuspended and homogenized membranes containing the Nluc-IL23R fusion protein were stored at -80 °C until use.
The plate was sealed with light impermeable plate seals, and incubated on an orbital shaker 400 rpm for 2 hours at room temperature. To determine the BRET ratio, the plate seal was removed and 25 µL of the Nanoluc substrate (Promega N1572) diluted 1:500 was added to each well and incubated for 1-2 minutes on an orbital shaker at 400 rpm. […] The BRET ratio was calculated as the fluorescence from the TAMRA/nanoluc bioluminescence.
Compound potency (IC50) and maximal displacement (% displacement) were estimated by computer-aided curve fitting using a 4-parameter logistic (4PL) non-linear model. […]
In this application, the inventors provide the data as IC50 values.

| Compound | % displacement (hIL-23R NIuc) | IC50 | Emax |
| --- | --- | --- | --- |
| CC[C@H](C)[C@@H]1NC(=O)[C@@H]2CCCCNC(=O)CC[C@@H](C(=O)N[C@@H](CCN)C(=O)N[C@H](Cc3cccnc3)C(N)=O)NC(=O)[C@](C)(C(C)C)NC(=O)[C@H](Cc3ccc4ccccc4c3)NC(=O)[C@H](Cc3ccc(C)cc3)NC(=O)[C@H](CCC(=O)N2)NC(=O)[C@H](CCC(N)=O)NC(=O)[C@H](Cc2c[nH]c3ccccc23)NC(=O)[C@H](C(C)C)NC1=O [Compound 18, K(1c)(6c)^†IVWQE(6c)[F(4-Me)][2-Nal][2-Me-Val]E(1c)[Dab][{d}3-(3-Pyridyl)-Ala]-[NH2]] | 100% | 8.5 nM |  |
| CC[C@H](C)[C@@H]1NC(=O)[C@@H]2CCCCNC(=O)CC[C@@H](C(=O)NCC(=O)N[C@H](Cc3cccnc3)C(N)=O)NC(=O)[C@](C)(C(C)C)NC(=O)[C@H](Cc3ccc4ccccc4c3)NC(=O)[C@H](CC3CC3)NC(=O)[C@H](CCC(=O)N2)NC(=O)[C@H](CCC(N)=O)NC(=O)[C@H](Cc2c[nH]c3ccccc23)NC(=O)[C@H](C(C)C)NC1=O [Compound 20, K(1c)(6c)^†IVWQE(6c)[Cyclopropyl-Ala][2-Nal][2-Me-Val]E(1c)G[{d}3-(3-Pyridyl)-Ala]-[NH2]] | 108% | 150 nM |  |
| CC[C@H](C)[C@@H]1NC(=O)[C@@H]2CCCCNC(=O)CC[C@@H](C(=O)NCC(=O)N[C@H](Cc3cccnc3)C(N)=O)NC(=O)[C@](C)(C(C)C)NC(=O)[C@H](Cc3ccc4ccccc4c3)NC(=O)[C@](C)(Cc3ccccc3)NC(=O)[C@H](CCC(=O)N2)NC(=O)[C@H](CCC(N)=O)NC(=O)[C@H](Cc2c[nH]c3ccccc23)NC(=O)[C@H](C(C)C)NC1=O [Compound 21, K(1c)(6c)^†IVWQE(6c)[2-Me-Phe][2-Nal][2-Me-Val]E(1c)G[{d}3-(3-Pyridyl)-Ala]-[NH2]] | 101% | 1000 nM |  |
| CC[C@H](C)[C@@H]1NC(=O)[C@@H]2CCCCNC(=O)CC[C@@H](C(=O)NCC(=O)N[C@H](Cc3cccnc3)C(N)=O)NC(=O)[C@](C)(C(C)C)NC(=O)[C@H](Cc3ccc4ccccc4c3)NC(=O)[C@@H](Cc3ccccc3)NC(=O)[C@H](CCC(=O)N2)NC(=O)[C@H](CCC(N)=O)NC(=O)[C@H](Cc2c[nH]c3ccccc23)NC(=O)[C@H](C(C)C)NC1=O [Compound 22, K(1c)(6c)^†IVWQE(6c)[{d}F][2-Nal][2-Me-Val]E(1c)G[{d}3-(3-Pyridyl)-Ala]-[NH2]] |  | 980 nM | 86% |
| CC[C@H](C)[C@@H]1NC(=O)[C@@H]2CCCCNC(=O)CC[C@@H](C(=O)NCCc3cccnc3)NC(=O)[C@](C)(C(C)C)NC(=O)[C@H](Cc3ccc4ccccc4c3)NC(=O)[C@H](Cc3ccc(OCCN)cc3)NC(=O)[C@@H](CCC(=O)N2)NC(=O)[C@H](CCC(N)=O)NC(=O)[C@H](Cc2c[nH]c3ccccc23)NC(=O)[C@H](C(C)C)NC1=O [Compound 27, K(1c)(6c)^†VWQ[{d}E](6c)[Y(2-aminoethoxy)][2-Nal][2-Me-Val]E(1c)-[NH-2-(pyridin-3-yl)ethyl]] | 102% | 110 nM |  |
| CC[C@H](C)[C@@H]1NC(=O)[C@@H]2CCCCNC(=O)CC[C@@H](C(=O)NCCCCc3cccnc3)NC(=O)[C@](C)(C(C)C)NC(=O)[C@H](Cc3ccc4ccccc4c3)NC(=O)[C@H](Cc3ccc(OCCN)cc3)NC(=O)[C@H](CCC(=O)N2)NC(=O)[C@H](CCC(N)=O)NC(=O)[C@H](Cc2c[nH]c3ccccc23)NC(=O)[C@H](C(C)C)NC1=O [Compound 28, K(1c)(6c)^†IVWQE(6c)[Y(2-aminoethoxy)][2-Nal][2-Me-Val]E(1c)-[NH-4-(pyridin-3-yl)butanyl]] | 97% | 200 nM |  |
| CC[C@H](C)[C@@H]1NC(=O)[C@@H]2CCCCNC(=O)CC[C@@H](C(=O)NCCCCCCc3cccnc3)NC(=O)[C@](C)(C(C)C)NC(=O)[C@H](Cc3ccc4ccccc4c3)NC(=O)[C@H](Cc3ccc(OCCN)cc3)NC(=O)[C@H](CCC(=O)N2)NC(=O)[C@H](CCC(N)=O)NC(=O)[C@H](Cc2c[nH]c3ccccc23)NC(=O)[C@H](C(C)C)NC1=O [Compound 29, K(1c)(6c)^†IVWQE(6c)[Y(2-aminoethoxy)][2-Nal][2-Me-Val]E(1c)-[NH-6-(pyridin-3-yl)hexanyl]] |  | 480 nM | 95% |
| CC(C)C[C@]1(C)NC(=O)[C@H](Cc2ccc3ccccc3c2)NC(=O)[C@H](Cc2ccc(OCCN)cc2)NC(=O)[C@@H]2CCC(=O)N[C@@H](CCCCNC(=O)CC[C@@H](C(=O)NCCCCc3cccnc3)NC1=O)C(=O)N[C@@H](CO)C(=O)N[C@@H](C(C)C)C(=O)N[C@@H](Cc1c[nH]c3ccccc13)C(=O)N[C@@H](CCC(N)=O)C(=O)N2 [Compound 30, K(1c)(6c)^†SVWQE(6c)[Y(2-aminoethoxy)][2-Nal][2-Me-Leu]E(1c)-[NH-4-(pyridin-3-yl)butanyl]] | 101% | 20 nM |  |

Now from value to molecule:

| % displacement (hIL-23R NIuc) | IC50 | Emax | Compound |
| --- | --- | --- | --- |
| 111% | 89 nM |  | CC[C@H](C)[C@@H]1NC(=O)[C@@H]2CCCCNC(=O)CC[C@@H](C(=O)NCC(=O)N[C@H](Cc3cccnc3)C(N)=O)NC(=O)[C@](C)(C(C)C)NC(=O)[C@H](CC3CC3)NC(=O)[C@H](Cc3ccc(C)cc3)NC(=O)[C@H](CCC(=O)N2)NC(=O)[C@H](CCC(N)=O)NC(=O)[C@H](Cc2c[nH]c3ccccc23)NC(=O)[C@H](C(C)C)NC1=O [Compound 23, K(1c)(6c)^†IVWQE(6c)[F(4-Me)][Cyclopropyl-Ala][2-Me-Val]E(1c)G[{d}3-(3-Pyridyl)-Ala]-[NH2]] |
|  |  | 91% | Cc1ccc(C[C@@H]2NC(=O)[C@@H]3CCC(=O)N[C@@H](CCCCNC(=O)[C@@H](NC(=O)CCCCCc4cccnc4)CCNC(=O)[C@](C)(CC(C)C)NC(=O)[C@H](Cc4ccc5ccccc5c4)NC2=O)C(=O)N[C@@H]([C@@H](C)O)C(=O)N[C@@H](C(C)C)C(=O)N[C@@H](Cc2c[nH]c4ccccc24)C(=O)N[C@@H](CCC(N)=O)C(=O)N3)cc1 [Compound 25, K(1c)(6c)^†TVWQE(6c)[Y(2-aminoethoxy)][2-Nal][2-Me-Leu][iso-Dab](1c)^‡-[6-(3-pyridyl)hexanoyl]] (KTVWQE[Phe(4-Me)][2Nal][αMeL]; linker 1-C via X23; lactam N-6) |
| 98% |  |  | CC(C)[C@@H]1NC(=O)[C@H](CO)NC(=O)[C@@H]2CCCCNC(=O)CC[C@@H](C(=O)NCCCCc3cccnc3)NC(=O)CNC(=O)[C@H](Cc3ccc4ccccc4c3)NC(=O)[C@H](Cc3ccc(OCCN)cc3)NC(=O)[C@H](CCC(=O)N2)NC(=O)[C@H](CCC(N)=O)NC(=O)[C@H](Cc2c[nH]c3ccccc23)NC1=O [Compound 31, K(1c)(6c)^†SVWQE(6c)[Y(2-aminoethoxy)][2-Nal]GE(1c)-[NH-4-(pyridin-3-yl)butanyl]] (KSVWQE[AEF][2Nal]GE-{NH(4-(3-pyridyl)butyl)}; lactam 1-10, N-6) |
|  | 320 nM | 99% | CCCOc1ccc(C[C@@H]2NC(=O)[C@@H]3CCC(=O)N[C@@H](CCCCNC(=O)CC[C@@H](C(=O)NCCCCc4cccnc4)NC(=O)[C@](C)(CC(C)C)NC(=O)[C@H](Cc4ccc5ccccc5c4)NC2=O)C(=O)N[C@@H]([C@@H](C)CC)C(=O)N[C@@H](C(C)C)C(=O)N[C@@H](Cc2c[nH]c4ccccc24)C(=O)N[C@@H](CCC(N)=O)C(=O)N3)cc1 [Compound 32, K(1c)(6c)^†IVWQE(6c)[Y(nPr)][2-Nal][2-Me-Leu]E(1c)-[NH-4-(pyridin-3-yl)butanyl]] |
